One assay concerns E-cadherin. Description: RHE vitiligo model: E-cadherin secretion by ELISA. It is filed as cell-based, human. Particulars: Rux 1.5%, 48 h. The procedure: (§1) […] Three epidermis samples per condition are fixed in 4% formaldehyde solution and embedded in paraffin for further analysis (morphology analysis, melanin and melanocytes localisation/quantification). Three other epidermis samples per condition are put in a specific lysis buffer for total RNA extraction.
(§2) At the end of the treatments, culture media is collected (from 3 epidermis per condition), aliquoted and stored at −20° C. until use in ELISA assays. The quantity of MMP-9 secreted by the epidermis at the end of the treatments is analysed using the human MMP-9 Quantikine ELISA kit (Bio-Techne; DMP900). The secretion of E-cadherin in culture media is measured using to human E-cadherin Quantikine ELISA kit (Bio-Techne; DCADE0) dedicated for the measurement of natural human E-cadherin in culture supernates, serum, plasma, urine, and saliva.
(§3) The ELISAs are performed following the instructions of the supplier. The quantities of MMP-9 and E-cadherin are determined by comparisons with standard curves performed with recombinant human MMP-9 or E-cadherin provided in the kits.
(§4) Quantification of secretion of MMP-9 and E-cadherin by ELISA from collected culture medium was conducted in accordance with Method E. The results, shown in FIG. 5A and FIG. 5B are based on Tables 23 and 24 respectively and presented in percentage of release in comparison to the stimulated control. A statistical analysis (student t-test) was performed to compare the effects of the treatments with the formulations to the vehicle (with $: 0.05>p>0.01; $$: 0.01>p>0.001; and $$$: p<0.001). The same analysis was performed to compare the effects of the vehicle and of the unstimulated control to the stimulated control (with *: 0.05>p>0.01; **: 0.01>p>0.001; and ***: p<0.001). The analysis was performed from three replicates per condition (n=3). The mean of the three values and the standard deviation are presented on the histograms in FIG. 5A and FIG. 5B. As shown in Table 21 and FIG. 5A and consistent with the results of Part A, MMP-9 secretion was increased following the stimulation with the cytokines, which validates the assay.

In the next assay the test system is MMP-9. Put plainly: RHE vitiligo model: MMP-9 secretion by ELISA. Format: cell-based, human. Conditions: Rux 1.5%, 48 h. The procedure: as §1, §2, §3, §4
The subject of assay [1] is IL4, IL13, IL31, CCL17, CCL26, CCL2 gene expression in Th2 stimulated human skin. Description: Th2 stimulated human skin explants, RT-qPCR of biomarkers. It is filed as cell-based. Particulars: Homo sapiens, calculated to Th2 stimulated control; for inhibition at 2.5 µM: 2.50 μM. An excerpt: (§5) Human skin biopsy tissue was stimulated to induce a Th17 immuno-phenotype using a method derived from Feghali-Bostwick et al. Induction of a Th17 phenotype in human skin—a mimic of dermal inflammatory diseases, Methods and Protocols, 2, 45 (2019). The pharmacodynamic assay described therein involves a similar paradigm to elicit a Th2 response and is used to evaluate the therapeutic potential of the active compounds (e.g., BETi1; and
(§6) Freshly excised healthy human skin tissue from abdominoplasties is defatted, cleaned and sectioned into 7 mm biopsies. The biopsies are placed in Transwell® inserts with the epidermis apical and exposed to air and the dermis submerged in media in the basal chamber. The biopsies are pre-treated overnight at 37° C., 5% CO2 with different compounds and controls added to the media in the basal chamber.
(§7) The next day, contents of the basal chamber is replaced with fresh media containing the test compound (listed below) and a stimulation cocktail for either Th2 inflammation (proprietary of service provider cocktail) or Th17 inflammation (mix of antibodies against CD3, CD28, IL-4, IFNγ and recombinant IL-1β, IL-6, IL-21, TGF-β). The biopsies are incubated at 37° C., 5% CO2 for a further 24 hrs.
(§8) A list of all the treatments is provided below: • 1. Untreated control (for both stimulations) • 2. Th2 stimulated control • 3. Th17 stimulated control • 4. Th2+BETia at 0.01, 0.04, 0.16, 0.63, 2.50, and 10 μM • 5. Th2+BETi1 at 0.01, 0.04, 0.16, 0.63, 2.50, and 10 μM • 6. Th2+Ruxolitinib at 0.01, 0.04, 0.16, 0.63, 2.50, and 10 μM • 7. Th2+betamethasone valerate 210 μM (equivalent to 0.01%) • 8. Th17+BETia at 10 μM • 9. Th17+BETi1 at 10 μM • 10. Th17+Ruxolitinib at 10 μM • 11. Th17+betamethasone valerate 210 μM (equivalent to 0.01%)
(§9) After harvesting, the biopsies are cut in half, and one half is homogenized and used for RNA extraction by standard methods and inflammatory pathways is assessed by RT-qPCR. The ability of BETi1 or BETia to inhibit the activity of up to six biomarkers per stimulation is reported as percent activity calculated to stimulated control and fold change in gene expression calculated to untreated control with respect to Th2 (IL4, IL13, IL31, CCL17, CCL26, CCL2) and Th17 (CXCL10, IL17α, IL22, IL36γ, CCL20, SerpinB4). Statistical analysis is performed on data sets from all 3 donors combined and compares the percent inhibition of each biomarker by each treatment calculated to its respective vehicle.
(§10) qPCR values were calculated using the relative quantification approach outlined by Livak, et al (2001) (Section 9, Reference 2). The Ct values (threshold cycle) defined as the fractional cycle number at which the amount of amplified target reaches a fixed threshold, were normalised to the Ct value of an internal biomarker or ‘housekeeping gene’ (GAPDH). The higher limit of detection was set at a Ct value of 40, and any target having not reached Ct by 40 cycles was set to this value. The delta Ct values (dt(Ct)) refers to the Ct of the gene of interest minus the Ct of the internal biomarker. The ddt(Ct) is the dt(Ct) value of the gene minus the average dt(Ct) value of the untreated samples. The ddt(Ct) is converted to power by the equation; =power(2,dt(Ct)). Fold change was calculated as ratio of the power of the gene of interest divided by the average power of the untreated samples. This normalizes the untreated samplers to a value of 1. For the comparison of multiple skin donors, the stimulated samples were normalized to 100% maximum activity (such to normalize variability between different skin donors). Percent activity was calculated as the percent increase or decrease in stimulation compared to the stimulated samples set at 100% maximum activity. Percent change was calculated as: Inhibition=(100−(avg % activity/stimulated)*100). Statistical analysis was performed using One-way ANOVA with Dunnett's Multiple Comparisons (non parametric). […]

Assay [2] concerns CXCL10, IL17α, IL22, IL36γ, CCL20, SerpinB4 gene expression in Th17 stimulated human skin. Description: Th17 stimulated human skin explants, RT-qPCR of biomarkers. Conditions: Homo sapiens, 10 μM, calculated to Th17 stimulated control, three skin donors. Format: cell-based.
From the text: as §5, §6, §7, §8, §9, §10

Assay [3] concerns anti collagen antibodies induced arthritis (ACAIA). Description: ACAIA mice: hot plate withdrawal latency. It is filed as in vivo, Balb/c mice. The procedure:
On days 0, 5 and 11 animals are placed on hot plate apparatus (53±1° C.) and the time until the first response is observed and recorded.

[4] abbreviates: TNF-α/IFN-γ stimulated RHE, replicates N1-N3.
Where [5] appears, read: culture medium of RHE, TNF-α 12 ng/ml/IFN-γ 12 ng/ml.
[6] abbreviates: culture medium of RHE, TNF-α 12 ng/ml/IFN-γ 12 ng/ml, replicates N1-N3.

The text below walks through data of patent publication US20250339409A1, “USES OF PAN BET INHIBITORS” (VYNE THERAPEUTICS INC., priority 2021, published 2025).

Where “and” joins values, the source holds several entries; their conditions need not be identical. Equal entries are not always repeated. Where two headings read alike, the source gives them in different places. Bounds are passed on as bounds.

In the case of `N#CC[C@H](C1CCCC1)n1cc(-c2ncnc3[nH]ccc23)cn1` [Rux], the “E-Cad (% stimulated ctl) Mean” value in the assay with E-cadherin (TNF-α/IFN-γ stimulated RHE) was 160%. Further, the “E-Cad (% stimulated ctl)” value in the assay with E-cadherin (setting [4]) is 77% and 247% and 155%. In addition, the “Mean conc E-Cad” value in the assay with E-cadherin (setting [5]) was 3.7 ng/mL. Also, in the assay on E-cadherin (setting [6]), the “Conc E-Cad” value is 1.8 ng/mL and 5.7 ng/mL and 3.6 ng/mL. In addition, the “MMP-9 (% stimulated ctl) Mean” value with MMP-9 (TNF-α/IFN-γ stimulated RHE) came out at 11%. Besides, in the assay with MMP-9 (setting [4]), the “MMP-9 (% stimulated ctl)” value was 2% and 28% and 4%. Further, in the assay on MMP-9 (setting [5]), the “Mean conc MMP-9” value came out at 2.0 ng/mL. Moreover, the “Conc MMP-9” value with MMP-9 (setting [6]) is 0.4 ng/mL and 4.9 ng/mL and 0.7 ng/mL.

With `CCNC(=O)c1cc2c(-c3ccn(C)c(=O)c3Oc3c(C)cc(F)cc3C)cn(C)c(=O)c2[nH]1` [BETia], the inhibition at 0.01 µM is 28.2% in assay [1] (read-out: % Inhibition CCL17); 8.3% in assay [1] (read-out: % Inhibition CCL26); less than 0% in assay [1] (read-out: % Inhibition IL31); less than 0% in assay [1] (read-out: % inhibition CCL2); less than 0% in assay [1] (read-out: % inhibition IL4); 22% in assay [1] (read-out: % inhibition IL13). Further, the inhibition at 0.04 µM in assay [1] (read-out: % Inhibition CCL26) was roughly 38%; in assay [1] (read-out: % Inhibition IL31) it was less than 0%; in assay [1] (read-out: % inhibition CCL2), less than 0%; in assay [1] (read-out: % inhibition IL4), less than 0%; in assay [1] (read-out: % inhibition IL13) it was 15.8%. The inhibition at 0.16 µM in assay [1] (read-out: % Inhibition CCL17) is 31.8%; in assay [1] (read-out: % Inhibition CCL26) it was 46.3%; in assay [1] (read-out: % Inhibition IL31) it was 19.1%; in assay [1] (read-out: % inhibition CCL2), less than 0%; in assay [1] (read-out: % inhibition IL4), 56.8%; in assay [1] (read-out: % inhibition IL13), 27.7%. For the same compound, the inhibition at 0.63 µM was 25.4% in assay [1] (read-out: % Inhibition CCL17), 2.8% in assay [1] (read-out: % Inhibition CCL26), less than 0% in assay [1] (read-out: % inhibition CCL2) and 22.3% in assay [1] (read-out: % inhibition IL13). The inhibition at 2.5 µM was 30% in assay [1] (read-out: % Inhibition CCL17); 8% in assay [1] (read-out: % Inhibition CCL26); less than 0% in assay [1] (read-out: % inhibition CCL2); 57.5% in assay [1] (read-out: % inhibition IL4); 24.9% in assay [1] (read-out: % inhibition IL13). Moreover, the inhibition at 10 µM is roughly 8% in assay [1] (read-out: % Inhibition CCL26); 21.5% in assay [1] (read-out: % inhibition CCL2); roughly 76% in assay [1] (read-out: % inhibition IL4); 53.4% in assay [1] (read-out: % inhibition IL13); 40.1% in assay [2] (read-out: % inhibition CCL20); 71.3% in assay [2] (read-out: % inhibition CXCL10). Further, the inhibition at 10 µM in assay [2] (read-out: % inhibition IL22) is 79.7%; in assay [2] (read-out: % inhibition IL36γ) it was 78.2%; in assay [2] (read-out: % inhibition Serpinβ4), 71.2%.

`C[C@@H]1C[C@H]2[C@@H]3CCC4=CC(=O)C=C[C@]4(C)[C@@]3(F)[C@@H](O)C[C@]2(C)[C@@]1(O)C(=O)CO` [Dex]: the “Hot Plate Change in withdrawal latency (Avg.)” value turned out to be 11.71 s in assay [3] (1 mg/kg IA, Baseline); 10.14 s in assay [3] (1 mg/kg IA, Day 5); 12.86 s in assay [3] (1 mg/kg IA, Day 11); 11.86 s in assay [3] (1 mg/kg IP, Baseline); 12.43 s in assay [3] (1 mg/kg IP, Day 5); 12.29 s in assay [3] (1 mg/kg IP, Day 11).

For orientation: inhibition means the relative decrease from the control value, in per cent.
